The structures appear in SMILES notation.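 Protocol summary: plate cells (96-well), add compound at 5 concentrations, incubate 48 h, interpolate endpoints linearly. At the TGI there is no net growth.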 A value given as a limit tells only on which side of the number the result lay.

Test systems include 786-0 renal; HCC-2998 colon; HCT-116 colon; HCT-15 colon; HS 578T breast; IGROV1 ovarian; SF-539 CNS; SK-OV-3 ovarian; U251 CNS; UACC-257 melanoma; OVCAR-3 ovarian; PC-3 prostate.
Common to all, as to experiment: inhibition of tumour cell growth, NCI panel, 48 h

Turning to `Fc1ccc2c3c([nH]c2c1)CCN(Cc1ccccc1)C3`, the TGI with 786-0 renal was 30 µM; in the experiment with HCC-2998 colon, 26 µM; in the experiment on HCT-116 colon it was 32.9 µM; in the experiment on HCT-15 colon, 36.5 µM; in the experiment with HS 578T breast, 30.8 µM; with IGROV1 ovarian, 42.5 µM. In addition, the TGI in the experiment with SF-539 CNS was 39 µM; with SK-OV-3 ovarian, 39.5 µM; in the experiment on U251 CNS, 37.1 µM; with UACC-257 melanoma it was 30.6 µM.

Regarding `CC(=O)OCC1OC(n2c3c(c(-c4ccc(Cl)cc4)c(C#N)c2=S)CCCC3)C(OC(C)=O)C(OC(C)=O)C1OC(C)=O` (stereo not drawn), the TGI with 786-0 renal, in the experiment on HCC-2998 colon, in the experiment on HCT-116 colon, in the experiment with HCT-15 colon, in the experiment with IGROV1 ovarian and with OVCAR-3 ovarian was above 100 µM throughout. For the same compound, the TGI in the experiment with PC-3 prostate is 69.1 µM; in the experiment on SF-539 CNS, above 100 µM; with SK-OV-3 ovarian, above 100 µM; with U251 CNS, above 100 µM; in the experiment with UACC-257 melanoma, above 100 µM.

For the compound `CC1CCC2CC(=O)OC([C@@H]3C(=O)O[C@@H](C4=CCCC4)C4C(C)CCC43)C12` (stereo partly drawn), the TGI in the experiment on 786-0 renal, in the experiment on HCC-2998 colon, in the experiment on HCT-116 colon, with HCT-15 colon, in the experiment on IGROV1 ovarian and with OVCAR-3 ovarian was above 100 µM in each case. For the same compound, the TGI with SF-539 CNS, in the experiment on SK-OV-3 ovarian, in the experiment on U251 CNS and with UACC-257 melanoma was above 100 µM throughout.

In the case of `COc1cc(OC)cc(-c2cc(=O)c3cc4c(cc3[nH]2)OCO4)c1`, the TGI is 33 µM in the experiment on 786-0 renal; 0.787 µM with HCC-2998 colon; 5.5 µM with HCT-116 colon; 22.8 µM in the experiment on HCT-15 colon; 18.2 µM in the experiment on IGROV1 ovarian; 5.82 µM in the experiment with OVCAR-3 ovarian. In addition, the TGI was 0.498 µM in the experiment on SF-539 CNS, 4.49 µM with SK-OV-3 ovarian, above 31.9 µM in the experiment on U251 CNS and above 100 µM in the experiment with UACC-257 melanoma.

For the compound `CC(=O)NC(NCCN)(c1ccccc1)c1ccccc1`, the TGI in the experiment with 786-0 renal, with HCC-2998 colon, in the experiment on HCT-116 colon, in the experiment on HCT-15 colon, in the experiment on HS 578T breast and in the experiment with SF-539 CNS was above 100 µM each time. Also, the TGI in the experiment with SK-OV-3 ovarian, in the experiment with U251 CNS and with UACC-257 melanoma was above 100 µM each time.

For the compound `COc1cccc(/C=C2\S/C(=N/Nc3nc(C)c(C)s3)NC2=O)c1O`, the TGI with 786-0 renal, in the experiment with HCC-2998 colon, with HCT-116 colon, with HCT-15 colon, in the experiment on IGROV1 ovarian and with OVCAR-3 ovarian was above 100 µM each time. The TGI in the experiment with SF-539 CNS, with SK-OV-3 ovarian, in the experiment on U251 CNS and with UACC-257 melanoma was above 100 µM throughout.

For `CC(Nc1ccc(Cl)c(Cl)c1)c1ccncc1` (stereo not drawn), the TGI in the experiment with 786-0 renal is 60.5 µM; in the experiment on HCT-116 colon, 36.5 µM; in the experiment with HCT-15 colon it was above 100 µM; in the experiment with IGROV1 ovarian it was 50.7 µM; in the experiment with OVCAR-3 ovarian it was 84.3 µM; in the experiment with PC-3 prostate it was 75.2 µM. The TGI in the experiment with SF-539 CNS was 56.4 µM; with SK-OV-3 ovarian it was 29.3 µM; with U251 CNS, 46.2 µM; with UACC-257 melanoma, above 100 µM.

As for `Cc1c(N=C/C=C/c2ccccc2)c(=O)n(-c2ccccc2)n1C`, the TGI in the experiment on HCT-116 colon is 29.2 µM; with HCT-15 colon it was above 100 µM; with HS 578T breast, 69.8 µM; with IGROV1 ovarian, above 100 µM; in the experiment on OVCAR-3 ovarian it was 67.9 µM; with PC-3 prostate, above 100 µM. Moreover, the TGI in the experiment with SF-539 CNS was 64.4 µM; in the experiment on SK-OV-3 ovarian it was above 100 µM; in the experiment on U251 CNS, 73.3 µM; in the experiment with UACC-257 melanoma, above 100 µM.

For the compound `CSCSCC(CO)NC(=O)/C(C)=C\c1c(C)[nH]c(=O)[nH]c1=O` (stereo not drawn), the TGI in the experiment on HCC-2998 colon, with HCT-116 colon, with HCT-15 colon, in the experiment on IGROV1 ovarian, with OVCAR-3 ovarian and with SF-539 CNS was above 250 µM in each case. In addition, the TGI in the experiment on SK-OV-3 ovarian is above 250 µM; in the experiment on U251 CNS, above 250 µM; in the experiment with UACC-257 melanoma it was above 158 µM.

`CCCCCc1c(CCCC)c(=O)[nH]c2nc(NC(=O)CCCC)ccc12`: the TGI in the experiment on 786-0 renal, in the experiment on HCC-2998 colon, in the experiment with HCT-116 colon, with HCT-15 colon, in the experiment on IGROV1 ovarian and with OVCAR-3 ovarian was above 100 µM each time. For the same compound, the TGI in the experiment on PC-3 prostate, with SF-539 CNS, with SK-OV-3 ovarian, in the experiment on U251 CNS and in the experiment on UACC-257 melanoma was above 100 µM throughout.

Consider `N[C@@H]1CCN(c2c(F)cc3c(=O)c(C(=O)O)cn4c3c2Oc2cc3c(ccc5ccccc53)cc2-4)C1`, for which the TGI was above 100 µM in the experiment with 786-0 renal; 18.5 µM in the experiment on HCT-116 colon; above 100 µM in the experiment with HCT-15 colon; above 100 µM with HS 578T breast; above 100 µM in the experiment on IGROV1 ovarian; 34.5 µM in the experiment with OVCAR-3 ovarian. Moreover, the TGI is above 28.2 µM in the experiment with PC-3 prostate, 28.5 µM in the experiment with SF-539 CNS and 5.04 µM in the experiment on U251 CNS.

In the case of `O=C(c1ccc(Cl)cc1)c1ccc(OCCCOc2ccc(C(=O)c3ccc(Cl)cc3)cc2Cl)c(Cl)c1`, the TGI in the experiment on 786-0 renal, with HCC-2998 colon, with HCT-116 colon, in the experiment on HCT-15 colon, in the experiment on IGROV1 ovarian and in the experiment with OVCAR-3 ovarian was above 100 µM throughout. For the same compound, the TGI in the experiment on SF-539 CNS, in the experiment with SK-OV-3 ovarian, in the experiment with U251 CNS and in the experiment on UACC-257 melanoma was above 100 µM throughout.

With `CC(C)C1NC(=O)CC(c2ccccc2)N(N=O)C1c1ccccc1` (stereo not drawn), the TGI with HCC-2998 colon, in the experiment with HCT-116 colon, in the experiment with HCT-15 colon, with IGROV1 ovarian, in the experiment on OVCAR-3 ovarian and in the experiment on SF-539 CNS was above 100 µM throughout. Also, the TGI with SK-OV-3 ovarian, with U251 CNS and in the experiment with UACC-257 melanoma was above 100 µM throughout.

The values are drawn from PubChem BioAssay (NCI).
